Data from patent publication US20100069668A1, “5-[(2R)-[2-[2-(2,2,2-TRIFLUOROETHOXY)PHENOXY]ETHYL]AMINO]PROPYL]-2-METHOXYBENZENESULFONAMIDE” (priority 2006, published 2010).
Counter-ions that a name gives are not always drawn.

Tests used:
α1 receptor [1] = test: antagonism of norepinephrine-induced contraction of isolated aorta smooth muscle; type: cell-based; conditions: isolated rat aorta
Protocol: (§1) The antagonism and antagonistic selectivity of α1 receptor of different isolated smooth muscle specimens treated with the compound having formula (I).
(§2) Methods: a 24-hour fasting rat was hit on the head to induce coma, and quickly dissected the abdominal cavity, its urethra, aorta and vas deferens were respectively taken out and recorded the contraction curve with instruments, then the different concentrations and volumes of norepinephrine were added to get noradrenalin's accumulation curve, rinsed immediately to return to baseline, then different concentrations of test drugs were added. Noradrenaline was added repeatedly after 5˜8 minute to obtain average contractile response curve of noradrenalin under different concentrations of antagonist, the contraction pD2 of noradrenaline on the urethra, aorta, vas deferens under different concentrations of samples for test was calculated, the pA2 value for antagonism of contraction caused by the samples against norepinephrine was obtain by regressing with the concentration of test samples and pD2.
(§3) Results: pA2 value for the contraction of the different organizations inhibition of smooth muscle specimens induced by the hydrochlorate of compound I and tamsulosin hydrochloride against norepinephrine is shown in Table 1. […]

α1 receptor [2] = test: antagonism of norepinephrine-induced contraction of isolated urethra smooth muscle; type: cell-based, rat; conditions: for pA2 for antagonism of norepinephrine-induced contraction, urethra: isolated rat urethra; for the intensity ratio of the contraction caused by inhibiting norepinephrine, urethra/aorta / the intensity ratio of the contraction caused by inhibiting norepinephrine, urethra/vas deferens: calculated by pA2 value
Protocol: as §1, §2
Results: pA2 value for the contraction of the different organizations inhibition of smooth muscle specimens induced by the hydrochlorate of compound I and tamsulosin hydrochloride against norepinephrine is shown in Table 1. The intensity ratio of contraction inhibitive effect of urethra and aorta, urethra and vas deferens smooth muscle, caused by the sample against noradrenaline is disclosed in table 2, which is calculated by pA2 value.

α1 receptor [3] = test: antagonism of norepinephrine-induced contraction of isolated vas deferens smooth muscle; type: cell-based; conditions: isolated rat vas deferens
Protocol: as §1, §2, §3

## CCOc1ccccc1OCCN[C@H](C)Cc1ccc(OC)c(S(N)(=O)=O)c1 [Tamsulosin hydrochloride]
α1 receptor [1]
  pA2 value for the contraction caused by inhibiting norepinephrine, aorta: 8.63
α1 receptor [2]
  pA2 for antagonism of norepinephrine-induced contraction, urethra: 9.22
  the intensity ratio of the contraction caused by inhibiting norepinephrine, urethra/aorta: 3.83
  the intensity ratio of the contraction caused by inhibiting norepinephrine, urethra/vas deferens: 0.123
α1 receptor [3]
  pA2 value for the contraction caused by inhibiting norepinephrine, vas deferens: 10.12

## COc1ccc(C[C@@H](C)NCCOc2ccccc2OCC(F)(F)F)cc1S(N)(=O)=O [the hydrochlorate of compound I, 5-[(2R)-[2-[2-[2-(2,2,2-trifluoroethoxy)phenoxy]ethyl]amino]propyl]-2-methoxybenzenesulfonamide]
α1 receptor [1]
  pA2 value for the contraction caused by inhibiting norepinephrine, aorta: 8.21
α1 receptor [2]
  pA2 for antagonism of norepinephrine-induced contraction, urethra: 11.00
  the intensity ratio of the contraction caused by inhibiting norepinephrine, urethra/aorta: 607.31
  the intensity ratio of the contraction caused by inhibiting norepinephrine, urethra/vas deferens: 8.120
α1 receptor [3]
  pA2 value for the contraction caused by inhibiting norepinephrine, vas deferens: 10.08
